According to patent US20250059162A1, “MULTI-PROTEIN DEGRADATION AGENT HAVING IMIDE SKELETON” (SUZHOU KINTOR PHARMACEUTICALS, INC., priority 2021, published 2025):

Legend:
Assay type in all cases: cell-based
[1] = biological target: T1, GSPT1 protein (Homo sapiens, UniProt P15170); assay: GSPT1 protein degradation in HL60 cells (Western blot); settings: for remaining GSPT1 protein at 0.01 µM: HL-60, compound at 10 nM, 24 h, gray value relative to Ctrl (DMSO), read-out: Remaining amount of GSPT1 protein (@10 nM/Ctrl)
T1 construct: degradation of myc and GSPT1 proteins in HL60 cells; endogenous in cells; host or cells: HL60
T1 sequence (P15170 whole entry): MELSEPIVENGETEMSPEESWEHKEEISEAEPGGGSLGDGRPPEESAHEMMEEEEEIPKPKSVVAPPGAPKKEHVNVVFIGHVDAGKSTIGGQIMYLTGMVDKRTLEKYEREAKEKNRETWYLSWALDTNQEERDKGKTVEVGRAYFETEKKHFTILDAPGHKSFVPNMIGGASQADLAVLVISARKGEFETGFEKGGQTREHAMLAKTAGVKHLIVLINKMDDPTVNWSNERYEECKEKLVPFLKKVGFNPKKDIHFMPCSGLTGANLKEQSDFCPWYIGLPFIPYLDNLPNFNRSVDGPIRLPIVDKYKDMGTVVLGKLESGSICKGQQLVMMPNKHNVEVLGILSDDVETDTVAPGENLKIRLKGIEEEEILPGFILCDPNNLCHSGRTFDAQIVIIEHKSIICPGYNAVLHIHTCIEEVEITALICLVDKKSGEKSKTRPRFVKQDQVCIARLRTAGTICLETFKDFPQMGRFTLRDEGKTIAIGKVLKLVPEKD
Method: (§1) HL60 cells in the exponential growth phase were digested and plated into a 6-well plate at 1×10^6 cells per well. The cell culture medium was RPMI-1640 (meilunbio, MA0215). After a day of adherent growth of the cells, the compound of the present invention was added as a test drug for culture, and proteins were extracted 24 h later (Ctrl meant adding only DMSO at the same volume).
(§2) In the 6-well plate, the culture medium RPMI-1640 (meilunbio, MA0215) was removed, and the cells were washed once with PBS, digested with trypsin, and centrifuged and collected separately into 1.5 mL centrifuge tubes. 100 μL of RIPA lysis buffer (containing 100 μM PMSF) was added to each tube, mixed thoroughly, allowed to stand on ice for 30 min and then centrifuged at 12000 rpm at 4° C. using a centrifuge for 20 min. The supernatant was used for Western blotting experiments. The sample can be stored at −80° C.
(§3) By using the BCA protein concentration determination kit (from Thermo Fisher, Cat. No. 23225), the BSA standard determination solution and the samples to be tested (the samples to be tested can be diluted and then tested) were prepared according to the table A below. Samples were added to the 96-well plate. Each well was supplemented with PBS to 20 μL, and then 200 μL of BCA working solution (prepared according to the kit) was added respectively and mixed evenly. The plate was placed at 60° C. for 10 min, and then the absorbance at 562 nm was detected. After the reading was recorded, a standard curve was plotted using concentration gradients of the standards, and the absorbance of the samples was substituted to calculate the protein concentration of the samples.
(§4) • 2.1 Protein denaturation: RIPA protein buffer (purchased from Solarbio, Cat. No. R0010) and 5× Loading Buffer (SDS, glycerin, bromophenol blue, TRIS) (purchased from Solarbio, Cat. No. P1040) were added, and the protein samples were denatured at 100° C. for 5 min. • 2.2 Sample loading and electrophoresis: 10% precast gel and the corresponding electrophoresis buffer were used. The same mass of protein sample and protein ladder (purchased from thermo, Cat. No. 26617) were loaded into each well, and electrophoresis at 200 V was performed for 30 min. • 2.3 […]: The gel was excised to remove the excess part. Transferring to PVDF membrane was performed by the wet transfer method (before use, it was necessary to activate the PVDF membrane with methanol for 1 min) at 300 mA for 2 h, during which a lot of heat was generated, and thus cooling with an ice box was required. • 2.4 Blocking: After the transferring, the PVDF membrane was placed in 5% skim milk and blocked with shaking at room temperature for 1 h. • 2.5 Incubating with primary antibody: The PVDF membrane was cut according to the molecular weight indicated on the marker and placed in c-myc (purchased from abcam, Cat. No. ab32072), or GSPT1 (purchased from abcam, Cat. No. ab234433), or CK1α (purchased from abcam, Cat. No. ab206652), or IKZF2 (purchased from proteintech, Cat. No. 13554-1-AP), and GAPDH (purchased from CST, Cat. No. #97166) primary antibodies. The antibodies were diluted with TBST buffer (a solution prepared from TRIS, KCL and NaCl and adjusted to pH 7.4 with hydrochloric acid, and Tween 20 was added) at a ratio of 1:1000, and blocked overnight on a shaker at 4° C. • 2.6 Incubating with secondary antibody: The PVDF membrane incubated with the primary antibody was washed with TBST for 3 times, each time for 10 min. After washing, the membrane was placed in the secondary antibody of the corresponding species, and incubated at room temperature in a shaker for 2 h. • 2.7 Washing membrane and exposure: After incubated with the secondary antibodies, the membrane was washed 3 times with TBST on a shaker, 10 minutes each time. […]

[2] = biological target: T2, c-Myc protein (Homo sapiens, UniProt P01106); assay: c-Myc protein degradation in HL60 cells (Western blot); settings: for remaining activity at 0.01 µM: HL-60, compound at 10 nM, 24 h, gray value relative to Ctrl (DMSO), read-out: Remaining amount of c-Myc protein (@10 nM/Ctrl)
T2 construct: degradation of myc and GSPT1 proteins in HL60 cells; endogenous in cells; host or cells: HL60
T2 sequence (P01106 whole entry): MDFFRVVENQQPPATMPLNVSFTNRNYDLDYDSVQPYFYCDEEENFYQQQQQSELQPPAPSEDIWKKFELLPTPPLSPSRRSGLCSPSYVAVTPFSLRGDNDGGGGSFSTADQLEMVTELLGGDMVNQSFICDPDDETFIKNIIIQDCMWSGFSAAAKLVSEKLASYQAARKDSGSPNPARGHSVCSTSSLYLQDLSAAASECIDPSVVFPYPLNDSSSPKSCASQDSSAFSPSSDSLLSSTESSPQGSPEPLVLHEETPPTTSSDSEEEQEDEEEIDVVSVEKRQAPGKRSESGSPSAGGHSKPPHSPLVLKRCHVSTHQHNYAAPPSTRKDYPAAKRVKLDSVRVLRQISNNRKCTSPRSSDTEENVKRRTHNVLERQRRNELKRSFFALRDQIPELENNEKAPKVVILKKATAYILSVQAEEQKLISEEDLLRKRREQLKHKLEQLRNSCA
Method: as §1, §2, §3, §4

[3] = test system: HL60 cells; assay: Anti-proliferation on HL60 cells (CellTiter-Glo, 3 days); settings: Homo sapiens, HL-60, 72 h, 3 days incubation, CTG luminescence, IC50 by XLfit, read-out: HL60 cells Proliferation inhibitory activity
Method: HL60 cells (Cell Bank of Chinese Academy of Sciences) in the logarithmic growth phase were counted and plated evenly in a 96-well transparent bottom white plate at 20000 cells per well and 100 μL per well.
A certain amount of the compound of the present invention was weighed and diluted with DMSO to a 10 mM stock solution. The culture medium RPMI-1640 (meilunbio, MA0215) corresponding to the cells were taken, and the compound was diluted to the concentration required by the test, shaken gently and mixed evenly. 50 μL of the gradient dilution of the diluted compound was added to each well of the plated cells, and 50 μL of 0.1% DMSO was added to the control group. The plate was shaken gently, mixed evenly and incubated in a cell culture incubator for 3 days.
• 3.1 The CellTiter-Glo™ (CTG) (purchased from Promega, Cat. No. G9242) reagent was taken in advance from the −20° C. refrigerator and equilibrated to room temperature in the dark. Cell Titer-Glo buffer and Cell Titer-Glo substrate were mixed at a ratio of 1:1 to prepare a CTG detection reagent. • 3.2 The 96-well plate was taken out and inspected under a microscope for growth. • 3.3 The bottom of the 96-well plate was tagged with white paper, and then the plate was wrapped with tin foil paper, shaken at 37° C. at 300 r for 10 min and mixed evenly. • 3.4. 50 μL of CTG detection reagent was added to each well, Luminescence signal was detected using a microplate reader Biotek Synergy Hi, and the inhibition rate was calculated. IC50 values of the compounds were calculated by XLfit 5.5.0 software to evaluate the proliferation inhibitory activity on HL60 cells.

| Compound | remaining GSPT1 protein at 0.01 µM [1] [%] | remaining activity at 0.01 µM [2] [%] | IC50 [3] [nM] | Degradation of GSPT1 protein in HL60 cells at 300 nM (FIG. 2, FIG. 3, in words) [1] | Degradation of GSPT1 protein in HL60 cells at 100 nM (FIG. 3, in words) ([1]; 100 nM) | Degradation of c-Myc protein in HL60 cells at 300 nM (FIG. 2, FIG. 3, in words) [2] |
| --- | --- | --- | --- | --- | --- | --- |
| O=C1CCC(N2Cc3cc(CNCC4CCN(c5cnc(-c6cccc7ccccc67)cn5)CC4)ccc3C2=O)C(=O)N1 (stereo not shown) [Compound A63] | 5 | 19 | 0.2 | – | – | – |
| O=C1CCC(N2Cc3cc(NC(=O)CC4CCN(c5ncc(-c6cccc7ccccc67)s5)CC4)ccc3C2=O)C(=O)N1 (stereo not shown) [Compound A24] | – | 0 | 0.5 | – | – | – |
| O=C1CCC(N2Cc3cc(C(=O)NCC4CCN(c5nccc(-c6ccc7ccccc7c6)n5)CC4)ccc3C2=O)C(=O)N1 (stereo not shown) [Compound A38] | – | 52 | 0.9 | – | – | – |
| O=C1CCC(N2Cc3cc(NC(=O)CC4CCN(c5ccc(-c6cccc7cccnc67)cn5)CC4)ccc3C2=O)C(=O)N1 (stereo not shown) [Compound A43] | – | 23 | < 0.2 | – | – | – |
| O=C1CCC(N2Cc3cc(NC(=O)CC4CCN(c5ncc(-c6cccc7ccccc67)o5)CC4)ccc3C2=O)C(=O)N1 (stereo not shown) [Compound A28] | – | 43 | 0.9 | – | – | – |
| O=C1CCC(N2Cc3cc(CNCC4CCN(c5ccc(-c6cccc(Cl)c6)nc5)CC4)ccc3C2=O)C(=O)N1 (stereo not shown) [Compound A71] | 0 | 26 | < 0.2 | – | – | – |
| N#Cc1cc(CNCC2CCN(c3ncc(-c4cccc(Cl)c4)cc3C(F)(F)F)CC2)ccc1C(=O)NC1CCC(=O)NC1=O (stereo not shown) [Compound A162] | – | – | 231 | simultaneously degrade both GSPT1 and c-Myc proteins | significantly degrade GSPT1 protein | simultaneously degrade both GSPT1 and c-Myc proteins |
| O=C1CCC(N2Cc3cc(NC(=O)CC4CCN(c5cc(-c6cccc7ccccc67)ccn5)CC4)ccc3C2=O)C(=O)N1 (stereo not shown) [Compound A17] | – | 23 | 1.2 | – | – | – |
| O=C1CCC(N2Cc3cc(NC(=O)CC4CCN(c5ncc(-c6cccc7ccccc67)cn5)CC4)ccc3C2=O)C(=O)N1 (stereo not shown) [Compound A30] | – | 14 | < 0.2 | – | – | – |
| O=C1CCC(N2Cc3cc(C(=O)NCC4CCN(c5ncc(-c6cccc7ccccc67)cn5)CC4)ccc3C2=O)C(=O)N1 (stereo not shown) [Compound A29] | – | 13 | 0.2 | – | – | – |
| O=C1CCC(N2Cc3cc(NC(=O)CC4CCN(c5ncc(-c6cccc(Cl)c6)cn5)CC4)ccc3C2=O)C(=O)N1 (stereo not shown) [Compound A53] | – | 10 | < 0.2 | – | – | – |
| O=C1CCC(N2Cc3cc(CNCC4CCN(c5ncc(-c6cccc(Cl)c6)cn5)CC4)ccc3C2=O)C(=O)N1 (stereo not shown) [Compound A66] | – | 9 | < 0.2 | – | – | – |
| O=C1CCC(N2Cc3cc(NC(=O)CC4CCN(c5ccc(-c6cccc7cccc(F)c67)cn5)CC4)ccc3C2=O)C(=O)N1 (stereo not shown) [Compound A47] | – | 19 | < 0.2 | – | – | – |
| O=C1CCC(N2Cc3cc(NC(=O)CC4CCN(c5ccc(-c6cccc7ccccc67)nc5)CC4)ccc3C2=O)C(=O)N1 (stereo not shown) [Compound A37] | – | 44 | 0.2 | – | – | – |
| O=C1CCC(N2Cc3cc(NC(=O)CC4CCN(c5ncc(C6CC6)cn5)CC4)ccc3C2=O)C(=O)N1 (stereo not shown) [Compound A49] | – | – | 1.5 | – | – | – |
| O=C(CN1CCC(CC(=O)Nc2ccc3c(c2)CN(C2CCC(=O)NC2=O)C3=O)CC1)NCc1cccc2ccccc12 (stereo not shown) [Compound A5] | – | – | 10 | – | – | – |

Second part, led by results:

| remaining GSPT1 protein at 0.01 µM [1] [%] | remaining activity at 0.01 µM [2] [%] | IC50 [3] [nM] | Degradation of GSPT1 protein in HL60 cells at 300 nM (FIG. 2, FIG. 3, in words) [1] | Degradation of GSPT1 protein in HL60 cells at 100 nM (FIG. 3, in words) ([1]; 100 nM) | Compound | Degradation of c-Myc protein in HL60 cells at 300 nM (FIG. 2, FIG. 3, in words) [2] |
| --- | --- | --- | --- | --- | --- | --- |
| 0 | 0 | < 0.2 | – | – | O=C1CCC(N2Cc3cc(CNCC4CCN(c5ncc(-c6cccc(Cl)c6)cc5F)CC4)ccc3C2=O)C(=O)N1 (stereo not shown) [Compound A73] | – |
| 0 | 0 | < 0.2 | – | – | O=C1CC[C@H](N2Cc3cc(CNCC4CCN(c5ncc(-c6cccc(Cl)c6)cc5C(F)(F)F)CC4)ccc3C2=O)C(=O)N1 [Compound A81] | – |
| 0 | 4 | 1.2 | – | – | O=C1CCC(N2Cc3cc(CNCC4(F)CCN(c5ncc(-c6cccc(Cl)c6)cc5C(F)(F)F)CC4)ccc3C2=O)C(=O)N1 (stereo not shown) [Compound A83] | – |
| 0 | 6 | < 0.2 | – | – | O=C1CCC(N2Cc3cc(CNCC4CCN(c5ncc(-c6ccccc6)cc5C(F)(F)F)CC4)ccc3C2=O)C(=O)N1 (stereo not shown) [Compound A92] | – |
| – | – | 387 | significantly degrade GSPT1 protein | – | O=C1CCC(N2Cc3ccc(CNCC4CCN(c5ncc(-c6cccc(Cl)c6)cc5C(F)(F)F)CC4)cc3C2)C(=O)N1 (stereo not shown) [Compound A145] | – |
| 6 | 3 | 6.2 | – | – | O=C1CCC(N2Cc3cc(CNCC4CCN(c5ncc(-c6ccc(F)cc6)cc5F)CC4)ccc3C2=O)C(=O)N1 (stereo not shown) [Compound A109] | – |
| 65 | 105 | 46.3 | significantly degrade GSPT1 protein | – | O=C1C[C@H](N2Cc3cc(CNCC4CCN(c5ncc(-c6cccc(Cl)c6)cc5C(F)(F)F)CC4)ccc3C2=O)C(=O)N1 [Compound A169] | simultaneously degrade both GSPT1 and c-Myc proteins |
| 0 | 0 | < 0.2 | – | – | COC(=O)c1cc(-c2cccc(Cl)c2)cnc1N1CCC(CNCc2ccc3c(c2)CN(C2CCC(=O)NC2=O)C3=O)CC1 (stereo not shown) [Compound A100] | – |
| – | – | 139 | significantly degrade GSPT1 protein | – | O=C1CCC(n2nc3cc(CNCC4CCN(c5ncc(-c6cccc(Cl)c6)cc5C(F)(F)F)CC4)ccn3c2=O)C(=O)N1 (stereo not shown) [Compound A146] | – |
| – | – | 268 | – | – | O=C1CCC(NC(=O)c2ccc(CNCC3CCN(c4ncc(-c5cccc(Cl)c5)cc4C(F)(F)F)CC3)cn2)C(=O)N1 (stereo not shown) [Compound A156] | – |
| – | – | < 3.04 | – | – | Cc1cccc(-c2cnc(N3CCC(CNCc4ccc5c(c4)CN([C@@H]4CCC(=O)NC4=O)C5=O)CC3)c(C(F)(F)F)c2)c1 [Compound A124] | – |
| – | – | 8220 | – | – | CN(C(=O)c1ccc(CNCC2CCN(c3ncc(-c4cccc(Cl)c4)cc3C(F)(F)F)CC2)cc1)C1CCC(=O)NC1=O (stereo not shown) [Compound A163] | – |
